How the values were obtained:
[1] = Parallel artificial membrane permeation assay for blood-brain barrier (PAMPA-BBB); assay type: in vitro ADME, porcine; settings: for Papp: pig, PBS:EtOH (70:30), read-out: Blood-brain barrier permeability Pe; for CNS prediction: predictive penetration in the CNS from Pe
Experimental: A parallel artificial membrane permeation assay for blood-brain barrier (PAMPA-BBB) was used to evaluate the brain penetration of compounds of formula I, following the method described by L. Di et al., “High throughput artificial membrane permeability assay for blood-brain barrier”, European Journal of Medicinal Chemistry 2003, vol. 38. pp. 223-232. The in vitro permeability (Pe) of the test compounds through a lipid extract of porcine brain membrane was determined. Assayed compounds were tested using a mixture of PBS:EtOH (70:30). Assay validation was made by comparing the experimental and reported permeability values of a set of fourteen commercial drugs and a lineal correlation between experimental and reported permeability values of the fourteen commercial drugs was obtained (y=1.678 x−1.447; R^2=0.9313). From this equation and taking into account the limits established by Di et al. for BBB permeation, the ranges of permeability were established, as follows. Compounds of high BBB permeation (CNS+): Pe (10^−6 cm s^−1)>5.26; compounds of low BBB permeation (CNS−): Pe (10^−6 cm s^−1)<1.91; and compounds of uncertain BBB permeation (CNS+/−): 5.26>Pe (10^−6 cm s^−1)>1.91. The permeability results are averages of three different experiments in triplicate and a predictive penetration in the CNS is also given (Table 5).

[2] = biological target: T1, recombinant human sEH (hsEH) (Homo sapiens, UniProt P34913); experiment: In vitro determination of sEH inhibitory activity (fluorescent PHOME assay)
T1 sequence (P34913 1-555): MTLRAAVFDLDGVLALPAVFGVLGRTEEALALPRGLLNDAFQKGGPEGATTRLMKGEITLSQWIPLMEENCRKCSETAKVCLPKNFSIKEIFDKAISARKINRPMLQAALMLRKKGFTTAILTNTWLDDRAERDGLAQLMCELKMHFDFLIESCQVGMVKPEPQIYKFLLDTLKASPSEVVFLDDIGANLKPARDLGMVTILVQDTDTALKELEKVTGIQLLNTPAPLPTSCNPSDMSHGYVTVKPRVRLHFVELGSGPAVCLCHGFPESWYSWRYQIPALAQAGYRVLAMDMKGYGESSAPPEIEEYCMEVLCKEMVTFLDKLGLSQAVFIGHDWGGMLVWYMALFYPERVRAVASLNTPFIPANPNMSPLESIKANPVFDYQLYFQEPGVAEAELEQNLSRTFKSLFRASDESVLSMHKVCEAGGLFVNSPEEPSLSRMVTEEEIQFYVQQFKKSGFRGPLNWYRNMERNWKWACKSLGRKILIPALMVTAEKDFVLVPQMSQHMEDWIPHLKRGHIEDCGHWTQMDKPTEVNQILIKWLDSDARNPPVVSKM
Experimental: Control compound (TPPU): N-[1-(1-Oxopropyl)-4-piperidinyl]-N′-[4-(trifluoromethoxy)phenyl]urea.
Five μL of DMSO were added to background and positive control wells, and then 5 μL of inhibitor solution were added in the inhibitor wells. Five μL of the solution of hsEH were added to the positive control and inhibitor wells and the mixture was stirred. A 1/21 dilution of the solution of PHOME with assay buffer was prepared according to the final volume required, and then 105 μL of each well were added. The plate was carefully shaken for 10 seconds and was incubated for 5 minutes at room temperature. […] The intensity of fluorescence was used to analyze and calculate the IC50 values. Results were obtained by regression analysis from at least three data points in a linear region of the curve. IC50 values are average of minimum three independent replicates.

[3] = biological target: T2, human recombinant glutaminyl cyclase (hQC) (Homo sapiens, UniProt Q16769); experiment: In vitro determination of human QC inhibitory activity (SensoLyte Green Glutaminyl Cyclase Activity Assay Kit); assay type: biochemical
T2 construct: purchased Eurogentec AS-72230
T2 sequence (Q16769 29-361): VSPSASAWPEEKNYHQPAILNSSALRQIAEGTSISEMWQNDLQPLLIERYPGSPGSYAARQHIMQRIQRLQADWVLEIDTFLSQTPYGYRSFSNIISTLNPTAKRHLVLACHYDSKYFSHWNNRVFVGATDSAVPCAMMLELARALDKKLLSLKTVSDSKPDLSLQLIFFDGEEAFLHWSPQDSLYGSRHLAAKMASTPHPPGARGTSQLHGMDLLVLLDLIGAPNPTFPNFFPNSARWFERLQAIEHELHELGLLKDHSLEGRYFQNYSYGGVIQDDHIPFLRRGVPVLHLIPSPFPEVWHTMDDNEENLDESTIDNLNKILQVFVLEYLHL
Experimental: Basic statistical analysis was performed.

LPS stimulated BV2 cells = experiment: Cytokine release in LPS stimulated BV2 cells; assay type: cell-based, murine; settings: compound 10 μM, 24 h
Experimental: Compounds of formula I were diluted from 250 mM DMSO stock solutions to a 10 mM stock in DMSO. Thereafter, the compounds were diluted to 10 μM and 1 μM in medium, so that the final DMSO concentration in the well was 0.1% for all conditions. The stock solutions were stored at −20° C. until further use.
Culture and treatment of BV-2 cells: The murine microglial cell line BV-2 was cultivated in Dulbecco's modified eagle medium (DMEM) supplemented with 10% fetal calf serum (FCS), 1% penicillin/streptomycin and 2 mM L-glutamine (culture medium). For the lipopolysaccharide (LPS) stimulation assay, 20,000 BV-2 cells per well (uncoated 96 well plates) were plated out. After 48 h, the medium was changed to treatment medium (DMEM, 5% FCS, 2 mM L-glutamine) and cells were maintained in treatment medium for the remaining culture period. After changing cells to treatment medium, the compounds were administered 1 h before LPS stimulation (Sigma-Aldrich; L6529; 1 mg/mL stock in ddH2O, final concentration in well: 100 ng/mL (dilutions in medium)). Cells treated with vehicle and LPS alone served as controls. All wells were handled the same way. After 24 h of stimulation, cell supernatants were collected for the cytokine measurement. The experiment was performed in n=6 technical replicates for all groups.
Cytokine measurement: The samples were diluted 1:2 and analysed for 4 cytokines (IL-1β, IL-2, IL-6, TNF-α) with a commercially available immunosorbent assay kit (U-plex, K15069L, Mesoscale Discovery) according to the instructions of the manufacturer. In brief, 25 μL of diluent 41 and 25 μL sample or respective standard were placed into wells of the pre-coated U-plex plate and incubated on an orbital shaker at room temperature for 1 h. Plates were washed 3 times with phosphate buffered saline with 0.05% Tween 20 (PBST) and thereafter 50 μL of detection antibody were added. Plates were again incubated on an orbital shaker at room temperature for 1 h. After another 3 washing steps with PBST, 150 μL of Mesoscale Discovery (MSD) GOLD Read Buffer were added and plates were read on Sector imager. Data were evaluated in comparison to calibration curves provided in the kit.
Statistics: Basic statistical analysis was performed. Group differences were evaluated by e.g. one-way ANOVA followed by a posthoc test, if appropriate.

| Papp [1] [×10⁻⁶ cm/s] | IC50 [2] [nM] | IC50 [3] [nM] | Compound | CNS prediction [1] | IL-1β level (LPS stimulated BV2 cells) | IL-2 level (LPS stimulated BV2 cells) | IL-6 level (LPS stimulated BV2 cells) | TNF-α level (LPS stimulated BV2 cells) |
| --- | --- | --- | --- | --- | --- | --- | --- | --- |
| 7.4 | 5900 | 767 | Cc1cncn1CCCNC(=O)NC1C2CC3CC(C2)CC1(F)C3 (racemic) [Iaa, (±)-1-(1-fluoroadamantan-2-yl)-3-[3-(5-methyl-1H-imidazol-1-yl)propyl]urea] | CNS+ (Compounds of high BBB permeation (CNS+): Pe (10^−6 cm s^−1)>5.26) |  |  |  |  |
| 6 | 30 | 496 | Cc1cncn1CCCNC(=O)NC1C2CC3CC(C2)CC1(Cl)C3 (racemic) [Iz, (±)-1-(1-chloroadamantan-2-yl)-3-[3-(5-methyl-1H-imidazol-1-yl)propyl]urea] | CNS+ (Compounds of high BBB permeation (CNS+): Pe (10^−6 cm s^−1)>5.26) |  |  |  |  |
| 7.1 | 35 | 610 | Cc1cncn1CCCNC(=O)NC12CC3CC(CC(C3)C1)C2 [Ia, 1-(adamantan-1-yl)-3-[3-(5-methyl-1H-imidazol-1-yl)propyl]urea] | CNS+ (Compounds of high BBB permeation (CNS+): Pe (10^−6 cm s^−1)>5.26) |  |  |  |  |
| 13.1 | 39 | 559 | Cc1cncn1CCCNC(=O)N[C@H]1C2CC3CC1C[C@](Cl)(C3)C2 [Iab, trans-1-(5-chloroadamantan-2-yl)-3-[3-(5-methyl-1H-imidazol-1-yl)propyl]urea] | CNS+ (Compounds of high BBB permeation (CNS+): Pe (10^−6 cm s^−1)>5.26) |  |  |  |  |
| 8.6 | 20 | 236 | Cc1cncn1CCCNC(=O)N[C@H]1C2CC3CC1C[C@](F)(C3)C2 [Iac, trans-1-(5-fluoroadamantan-2-yl)-3-[3-(5-methyl-1H-imidazol-1-yl)propyl]urea] | CNS+ (Compounds of high BBB permeation (CNS+): Pe (10^−6 cm s^−1)>5.26) |  |  |  |  |
|  | 93 | 12700 | O=C(NCCCn1ccnc1)NC12CC3CC(CC(C3)C1)C2 [Ib, 1-[3-(1H-imidazol-1-yl)propyl]-3-(adamantan-1-yl)urea] |  |  |  |  |  |
| 10.2 | 13.3 |  | Cc1cncn1CCCNC(=O)NC12CC3CC(CC(C)(C3)C1)C2 [Ic, 1-[3-(5-methyl-1H-imidazol-1-yl)propyl]-3-(3-methyladamantan-1-yl)urea] | CNS+ (Compounds of high BBB permeation (CNS+): Pe (10^−6 cm s^−1)>5.26) |  |  |  |  |
| 8.8 | 29 | 2100 | Cc1cncn1CCCNC(=O)NC12CC3CC(C)(CC(C)(C3)C1)C2 [Ie, 1-(3,5-dimethyladamantan-1-yl)-3-[3-(5-methyl-1H-imidazol-1-yl)propyl]urea] | CNS+ (Compounds of high BBB permeation (CNS+): Pe (10^−6 cm s^−1)>5.26) |  |  |  |  |
|  | 37 | 990 | Cc1cncn1CCCNC(=O)NC12CC3CC(CC(Cl)(C3)C1)C2 [If, 1-(3-chloroadamantan-1-yl)-3-[3-(5-methyl-1H-imidazol-1-yl)propyl]urea] |  |  |  |  |  |
|  | 150 | 810 | Cc1cncn1CCCNC(=O)NC12CC3CC(CC(F)(C3)C1)C2 [Ig, 1-(3-fluoroadamantan-1-yl)-3-[3-(5-methyl-1H-imidazol-1-yl)propyl]urea] |  |  |  |  |  |
|  | 330 | 1040 | Cc1cncn1CCCNC(=O)NC12CC3CC(CC(O)(C3)C1)C2 [Ih, 1-(3-hydroxyadamantan-1-yl)-3-[3-(5-methyl-1H-imidazol-1-yl)propyl]urea] |  |  |  |  |  |
| 9.4 | 45 | 5200 | O=C(NCCCn1ccnc1)NC1C2CC3CC(C2)CC1C3 (stereo not shown) [Ij, 1-[3-(1H-imidazol-1-yl)propyl]-3-(adamantan-2-yl)urea] | CNS+ (Compounds of high BBB permeation (CNS+): Pe (10^−6 cm s^−1)>5.26) |  |  |  |  |
| 14.1 | 9 | 730 | Cc1cncn1CCCNC(=O)NCC12CC3CC(CC(C3)C1)C2 [Ik, 1-[(adamantan-1-yl)methyl]-3-[3-(5-methyl-1H-imidazol-1-yl)propyl]urea] | CNS+ (Compounds of high BBB permeation (CNS+): Pe (10^−6 cm s^−1)>5.26) |  |  |  |  |
| 11.8 | 300 | 3500 | O=C(NCCCn1ccnc1)NCC12CC3CC(CC(C3)C1)C2 [Im, 1-[3-(1H-imidazol-1-yl)propyl]-3-[(adamantan-1-yl)methyl]urea] | CNS+ (Compounds of high BBB permeation (CNS+): Pe (10^−6 cm s^−1)>5.26) |  |  |  |  |
| 18.7 | 1.3 | 1650 | Cc1cncn1CCCNC(=O)NCCC12CC3CC(CC(C3)C1)C2 [Io, 1-[2-(adamantan-1-yl)ethyl]-3-[3-(5-methyl-1H-imidazol-1-yl)propyl]urea] | CNS+ (Compounds of high BBB permeation (CNS+): Pe (10^−6 cm s^−1)>5.26) |  |  |  |  |
| 26.4 | 5100 |  | Cc1cncn1CCCNC(=O)NC12CC3CC(CC(C3)O1)C2 [Iq, 1-(2-oxaadamantan-1-yl)-3-[3-(5-methyl-1H-imidazol-1-yl)propyl]urea] | CNS+ (Compounds of high BBB permeation (CNS+): Pe (10^−6 cm s^−1)>5.26) |  |  |  |  |
| 5.4 | 194 |  | Cc1cncn1CCCNC(=O)NCC12CC3CC(CC1C3)C2 [Iu, 1-[(noradamantan-3-yl)methyl]-3-[3-(5-methyl-1H-imidazol-1-yl)propyl]urea] | CNS+ (Compounds of high BBB permeation (CNS+): Pe (10^−6 cm s^−1)>5.26) |  |  |  |  |
|  | 72 | 6800 | Cc1cncn1CCCNC(=O)NCC12CC3(C)C4(C)CC1CC4(C)C3(C)C2 [Iw, 1-[3-(5-methyl-1H-imidazol-1-yl)propyl]-3-[(3,4,8,9-tetramethyltetracyclo[4.4.0.0^3,9.0^4,8]decan-1-yl)methyl]urea] |  |  |  |  |  |
| 6.5 | 59 |  | Cc1cncn1CCCNC(=O)NC(C)C12CC3CC(CC(C3)C1)C2 (stereo not shown) [Ix, 1-[1-(adamantan-1-yl)ethyl]-3-[3-(5-methyl-1H-imidazol-1-yl)propyl]urea] | CNS+ (Compounds of high BBB permeation (CNS+): Pe (10^−6 cm s^−1)>5.26) |  |  |  |  |
|  |  |  | CCC(=O)N1CCC(NC(=O)Nc2ccc(OC(F)(F)F)cc2)CC1 [TPPU, N-[1-(1-Oxopropyl)-4-piperidinyl]-N′-[4-(trifluoromethoxy)phenyl]urea, reference compound] |  | 125 % of vehicle control | 113 % of vehicle control | 117 % of vehicle control | 96 % of vehicle control |
|  |  |  | C[C@@H]1C[C@H]2[C@@H]3CCC4=CC(=O)C=C[C@]4(C)[C@@]3(F)[C@@H](O)C[C@]2(C)[C@@]1(O)C(=O)CO [dexamethasone, reference compound] |  | 42 % of vehicle control | 50 % of vehicle control | 55 % of vehicle control | 49 % of vehicle control |
